The numbers were not newly measured in article PMC12308805, “Ultrahigh-Throughput Virtual Screening Strategies against PPI Targets: A Case Study of STAT Inhibitors” (Journal of Chemical Information and Modeling, 2025), which cites them from elsewhere.

The subject of one data set is STAT3. The conditions noted are these: sheet 6QHD_actives_decoys; retrospective screening set for STAT3 SH2 domain (PDB 6QHD); […]; ref DUD-E; cited from earlier work.
As for `CSc1cccc(NC(=O)C[C@@H]2SC(N[C@H](c3cccs3)c3c(O)[nH]c(=O)[nH]c3=O)=NC2=O)c1` [Decoy681], the Type result is given as “Inactive (Decoy)”. As for `C=C(CO[C@H]1O[C@@H](CO[C@H]2OC[C@@H](O)[C@@H](O)[C@H]2O)[C@@H](O)[C@@H](O)[C@H]1O)[C@H]1Cc2c(ccc3c2O[C@@H]2COc4cc(OC)c(OC)cc4[C@H]2C3=O)O1` [Decoy686], the Type result is recorded as “Inactive (Decoy)”.

Regarding `COc1ccc(CCN2C(=O)NC(O)=C3C2=NC(=O)[C@@]3(NS(=O)(=O)c2nnc(NC(C)=O)s2)C(F)(F)F)cc1OC` [Decoy687], the Type result was “Inactive (Decoy)”. For the compound `O=C(CCCN1CCC(O[C@@H]2O[C@H](C(=O)O)[C@@H](O)[C@H](O)[C@H]2O)(c2ccc(Cl)cc2)CC1)c1ccc(F)cc1` [Decoy692], the Type entry was “Inactive (Decoy)”. As for `COc1ccccc1NS(=O)(=O)c1cccc(C(=O)NNC(=O)c2cc3ccccc3[nH]c2=O)c1` [Decoy693], the Type entry is listed as “Inactive (Decoy)”. In the case of `COc1cc([C@H]2C(C#N)=C(N)Oc3[nH]nc(-c4cc(OC)c(OC)c(OC)c4)c32)ccc1OC(=O)N1CCOCC1` [Decoy695], the Type result is given as “Inactive (Decoy)”.

For `CC(=O)Nc1ccc(S(=O)(=O)N[C@@]2(C(F)(F)F)C(=O)N=C3C2=C(O)N=C(S)N3Cc2ccco2)cc1` [Decoy697], the Type entry was “Inactive (Decoy)”.

Regarding `COc1ccc(NS(=O)(=O)c2cccc(NS(=O)(=O)c3cccc([N+](=O)[O-])c3)c2)cc1` [Decoy709], the Type result was “Inactive (Decoy)”. As to `COc1cc(-n2c(O)c([C@H]3OC(=O)c4c3ccc(OC)c4OC)c(O)nc2=S)cc(OC)c1OC` [Decoy716], the Type result is recorded as “Inactive (Decoy)”.

Still in this data set, the particulars now being: sheet 6QHD_actives_decoys; retrospective screening set for STAT3 SH2 domain (PDB 6QHD); decoys generated with DUD-E and presumed inactive, not tested; ref DUD-E; cited from earlier work.
Take `CCCC[C@@]1(c2ccc(F)cc2)NC(=O)N(CC(=O)Nc2ccc(S(=O)(=O)N(CC)CC)cc2)C1=O` [Decoy682]: the Type result is recorded as “Inactive (Decoy)”. On to `Cc1ccc(S(=O)(=O)n2cc(/C=N\N=C3/NC(=O)[C@H](CC(=O)O)S3)c3ccccc32)cc1` [Decoy683], for which the Type entry is reported as “Inactive (Decoy)”. As to `CCN(CC)S(=O)(=O)c1ccc(NC(=O)CSc2n[nH]c(NN=C3CCCC3)n2)cc1` [Decoy684], the Type result is reported as “Inactive (Decoy)”. Turning to `OC[C@@]1(O)CO[C@H](OC[C@H]2O[C@@H](O[C@H](CCCCc3ccc(O)cc3)CCc3ccc(O)cc3)[C@H](O[C@H]3OC[C@](O)(CO)[C@H]3O)[C@@H](O)[C@@H]2O)[C@@H]1O` [Decoy685], the Type result is “Inactive (Decoy)”. In the case of `C=C[C@@](C)(CC/C=C(\C)CC/C=C(\C)C[C@H](O)/C=C(\C)C(=O)O)O[C@@H]1O[C@H](CO)[C@@H](O)[C@H](O)[C@H]1O[C@@H]1O[C@H](CO)[C@@H](O)[C@H](O)[C@H]1O` [Decoy688], the Type result is reported as “Inactive (Decoy)”. Consider `C=C[C@](C)(CC/C=C(\C)CC/C=C(\C)C[C@H](O)/C=C(\C)C(=O)O)O[C@@H]1O[C@H](CO)[C@@H](O)[C@H](O)[C@H]1O[C@@H]1O[C@H](CO)[C@@H](O)[C@H](O)[C@H]1O` [Decoy689], for which the Type result is “Inactive (Decoy)”.

For the compound `COc1ccc([N+](=O)[O-])cc1NC(=S)N[C@@H](NC(=O)c1ccco1)C(Cl)(Cl)Cl` [Decoy690], the Type result is “Inactive (Decoy)”. On to `C=C[C@@](C)(O)CC/C=C(\C)C(=O)O[C@@H]1[C@@H]2O[C@]2(C)[C@H]2[C@H](O[C@@H]3O[C@H](CO)[C@@H](O)[C@H](O)[C@H]3O)OC=C[C@@]12O` [Decoy691], for which the Type entry is given as “Inactive (Decoy)”.

Turning to `COc1ccc(/C=N\N=C2/NC(=O)[C@@H](CC(=O)Nc3ccc([N+](=O)[O-])cc3)S2)c(C(=O)O)c1OC` [Decoy694], the Type result was “Inactive (Decoy)”. In the case of `Cc1cc(C)n(Cc2ccc(NC(=S)Nc3ccc(S(=O)(=O)Nc4ncccn4)cc3)cc2)n1` [Decoy696], the Type result was “Inactive (Decoy)”. As for `CC[C@H](c1nnnn1C[C@H]1CCCO1)N(Cc1ccc(C)cc1)Cc1cc2cc(OC)c(OC)cc2[nH]c1=O` [Decoy698], the Type result was “Inactive (Decoy)”.

With `C=C[C@H]1[C@H](O[C@H]2O[C@@H](CO)[C@@H](O)[C@@H](O)[C@@H]2O)OC=C(C(=O)OC)[C@H]1CCOC(=O)c1cc(O)c(O)c(O)c1` [Decoy699], the Type entry is reported as “Inactive (Decoy)”. Turning to `C=C[C@H]1[C@H](O[C@H]2O[C@@H](CO)[C@@H](O)[C@@H](O)[C@H]2O)OC=C(C(=O)OC)[C@H]1CCOC(=O)c1cc(O)c(O)c(O)c1` [Decoy700], the Type result is “Inactive (Decoy)”.

Regarding `O=C[C@H](O)[C@@H](O)[C@H](O)[C@@H](CO)O[P@](=O)(OC[C@H]1O[C@@H](n2ccc(=O)[nH]c2=O)[C@H](O)[C@@H]1O)OP(=O)(O)O` [Decoy701], the Type result is listed as “Inactive (Decoy)”.

For the compound `Cc1cc(NS(=O)(=O)c2ccc(NC(=O)CCC(=O)Nc3ccc(S(=O)(=O)Nc4cc(C)on4)cc3)cc2)no1` [Decoy702], the Type entry was “Inactive (Decoy)”. Turning to `CCN(CC)c1ccc(/C=N/NC(=O)CSc2nnc(-c3cc(OC)c(OC)c(OC)c3)n2-c2ccccc2)c(O)c1` [Decoy703], the Type result was “Inactive (Decoy)”. Turning to `CCOC(=O)c1ccc(NC(=O)CSc2ccc3nnc(CCNS(=O)(=O)c4ccc(OC)cc4)n3n2)cc1` [Decoy704], the Type result was “Inactive (Decoy)”. As for `CCOC(=O)C1=C(C)NC(=O)N[C@H]1c1cc(OC)c(OCC(=O)Nc2ccc(C)cc2)cc1Br` [Decoy705], the Type result is “Inactive (Decoy)”. Consider `COc1cc(/C=C/C(=O)O[C@H]2[C@H](O)[C@@H](COC(=O)/C=C/c3ccc(O)cc3)O[C@@]2(CO)O[C@H]2O[C@H](CO)[C@@H](O)[C@H](O)[C@H]2O)ccc1O` [Decoy706], for which the Type entry is on record as “Inactive (Decoy)”. With `COc1ccccc1OCCNC[C@@H](O)CN(CCOc1ccccc1OC)C[C@H](O)COc1cccc2[nH]c3ccccc3c12` [Decoy707], the Type entry was “Inactive (Decoy)”. Take `COc1ccccc1OCCNC[C@H](O)CN(CCOc1ccccc1OC)C[C@H](O)COc1cccc2[nH]c3ccccc3c12` [Decoy708]: the Type result is given as “Inactive (Decoy)”. Turning to `CCN(CC)c1ccc(/C=N/NC(=O)CN(c2cc(Cl)ccc2OC)S(=O)(=O)c2ccc(C)c([N+](=O)[O-])c2)cc1` [Decoy710], the Type entry is “Inactive (Decoy)”. `COC(=O)c1[nH]c(C)c(C(=O)C2=C(O)C(=O)N(CCCN3CCOCC3)[C@@H]2c2cc(OC)c(OC)c(OC)c2)c1C` [Decoy711]: the Type entry is “Inactive (Decoy)”. Regarding `COCCN(C(=O)COc1cc(Cl)c(Cl)cc1Cl)c1c(N)n(CC(C)C)c(=O)[nH]c1=O` [Decoy712], the Type result is “Inactive (Decoy)”. Turning to `COc1ccc(CCNC(=O)CN(c2ccc(F)cc2)S(=O)(=O)c2ccc(OC)c(OC)c2)cc1OC` [Decoy713], the Type result is “Inactive (Decoy)”.

For `Cc1cccn2c(=O)c(/C=C3\SC(=S)N(CCCCCC(=O)O)C3=O)c(NCCN3CCOCC3)nc12` [Decoy714], the Type result is “Inactive (Decoy)”. For the compound `COc1cc(C[C@H]2CO[C@H](c3ccc(O)c(OC)c3)[C@@H]2CO[C@H]2O[C@@H](CO)[C@@H](O)[C@@H](O)[C@H]2O)ccc1O` [Decoy715], the Type result was “Inactive (Decoy)”. Take `COc1cc(O)c(C(C)=O)c(O[C@@H]2O[C@@H](CO[C@H]3O[C@@H](CO)[C@@H](O)[C@@H](O)[C@H]3O)[C@@H](O)[C@@H](O)[C@H]2O)c1` [Decoy717]: the Type entry is recorded as “Inactive (Decoy)”. For the compound `Nn1c(SCC(=O)N/N=C/c2ccccc2OCc2ccccc2Cl)nnc1-c1ccncc1` [Decoy718], the Type entry was “Inactive (Decoy)”.
